In patent publication US8426437B2, “Pyrroloquinoline derivatives and their use as protein kinases inhibitors” (Pierre Fabre Medicament, priority 2005, dated 2013):
Structures can show the parent of a compound that is named as a salt.

target: T1, RET (Homo sapiens, UniProt P07949); experiment: Inhibition of RET kinase activity, recombinant RET method (Kinase-Glo); assay type: biochemical; conditions: RET 2 μg/ml, poly-EY4 substrate, 20 μM ATP, two hours at 30° C.
T1 construct: purchased Upstate 14-570MG
Experimental: The inhibition of the kinase activity of the compounds of the invention is assessed by measuring their IC50 on RET.
where: • Y is the value of the luminescence • X is the logarithm of the concentration of the compound • Bottom is the minimum Y value • Top is the maximum Y value • LogIC50 is the value of X when Y is 50% from Top—Bottom.
The quantity of RET required is 2 μg/ml.
The following buffer is used for dilution of RET: 20 mM MOPS/NaOH pH7.0, 1 mM EDTA, 5% glycerol, 0.01% Brij35 (Sigma B4184), 0.1% 2-mercaptoethanol, 1 mg/ml BSA (Sigma A3059-10G).
The dilution of the compounds of the invention is distributed so as to obtain a scale of final concentrations between 10 nM and 30 μM.
After incubation of the reaction mixture for two hours at 30° C., the level of ATP that remains is assayed using the Kinase-Glo Luminescent Kinase Assay (Promega #V6712) according to the conditions recommended by the supplier. The luminescence induced is read in a plate reader (Envision-Perkin Elmer).

T1 sequence (P07949 29-1114): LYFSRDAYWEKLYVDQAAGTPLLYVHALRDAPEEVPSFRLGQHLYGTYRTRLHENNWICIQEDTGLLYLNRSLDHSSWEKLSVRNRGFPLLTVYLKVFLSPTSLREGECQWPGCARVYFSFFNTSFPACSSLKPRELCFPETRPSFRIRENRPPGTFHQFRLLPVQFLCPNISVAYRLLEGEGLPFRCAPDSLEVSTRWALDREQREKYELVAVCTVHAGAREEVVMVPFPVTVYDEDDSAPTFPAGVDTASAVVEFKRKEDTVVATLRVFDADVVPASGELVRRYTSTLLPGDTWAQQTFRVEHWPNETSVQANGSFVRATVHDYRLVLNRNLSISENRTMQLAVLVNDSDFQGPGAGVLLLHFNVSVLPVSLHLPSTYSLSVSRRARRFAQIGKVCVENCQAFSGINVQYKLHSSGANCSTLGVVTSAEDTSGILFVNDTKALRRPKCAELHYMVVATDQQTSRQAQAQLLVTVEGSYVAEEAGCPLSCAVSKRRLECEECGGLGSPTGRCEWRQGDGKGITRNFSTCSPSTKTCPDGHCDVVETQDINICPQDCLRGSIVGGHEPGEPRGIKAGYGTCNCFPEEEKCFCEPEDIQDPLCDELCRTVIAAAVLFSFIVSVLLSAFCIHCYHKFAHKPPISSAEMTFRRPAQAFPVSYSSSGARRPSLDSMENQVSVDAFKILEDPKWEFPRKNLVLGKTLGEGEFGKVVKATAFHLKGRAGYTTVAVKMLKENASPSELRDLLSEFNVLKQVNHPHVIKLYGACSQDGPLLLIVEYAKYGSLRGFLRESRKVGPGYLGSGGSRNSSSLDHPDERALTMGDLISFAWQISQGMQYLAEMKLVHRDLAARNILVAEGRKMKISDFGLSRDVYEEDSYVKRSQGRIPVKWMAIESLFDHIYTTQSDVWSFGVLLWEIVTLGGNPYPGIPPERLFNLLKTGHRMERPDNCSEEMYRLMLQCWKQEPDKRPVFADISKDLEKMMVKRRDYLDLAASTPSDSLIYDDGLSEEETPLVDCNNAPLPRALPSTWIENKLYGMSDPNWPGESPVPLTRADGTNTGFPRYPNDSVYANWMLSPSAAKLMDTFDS

Row | IC50 [µM] | SMILES
1 | 1 to 10 | CCOC(=O)c1c[nH]c2c(=O)[nH]c3ccc(C#Cc4ccccc4)cc3c12 [Compound 201, 4-Oxo-8-phenylethynyl-4,5-dihydro-3H-pyrrolo[2,3-c]quinoline-1-ethyl carboxylate]
2 | 0.1 to 1 | CCOC(=O)c1c[nH]c2c(=O)[nH]c3ccc(S(=O)(=O)Nc4cccnc4)cc3c12 [Compound 23, 4-Oxo-8-(pyridin-3-ylsulfamoyl)-4,5-dihydro-3H-pyrrolo[2,3-c]quinoline-1-ethyl carboxylate]
3 | 0.1 to 1 | CCCOC(=O)c1c[nH]c2c(=O)[nH]c3ccc(S(=O)(=O)N4CCCC(C(N)=O)C4)cc3c12 (centres unmarked) [Compound 179, 8-(3-Carbamoyl-piperidine-1-sulfonyl)-4-oxo-4,5-dihydro-3H-pyrrolo[2,3-c]quinoline-1-propyl carboxylate]
4 | 1 to 10 | CCOC(=O)c1c[nH]c2c(=O)[nH]c3ccc(NS(=O)(=O)c4ccc(OC)cc4)cc3c12 [Compound 50, 8-(4-Methoxy-benzenesulfonylamino)-4-oxo-4,5-dihydro-3H-pyrrolo[2,3-c]quinoline-1-ethyl carboxylate]
5 | 1 to 10 | CCOC(=O)c1c[nH]c2c(=O)[nH]c3ccc(S(=O)(=O)N(C)CCc4ccccc4)cc3c12 [Compound 25, 8-(Methyl-phenethyl-sulfamoyl)-4-oxo-4,5-dihydro-3H-pyrrolo[2,3-c]quinoline-1-ethyl carboxylate]
6 | 10 to 100 | CN(c1ccc(F)cc1)S(=O)(=O)c1ccc2[nH]c(=O)c3[nH]cc(C(=O)OCCCN)c3c2c1 [Compound 107, Trifluoroacetate of 8-[(4-fluorophenyl)-methyl-sulfamoyl]-4-oxo-4,5-dihydro-3H-pyrrolo[2,3-c]quinoline-1-3-aminopropyl carboxylate]
7 | 0.1 to 1 | CCCOC(=O)c1c[nH]c2c(=O)[nH]c3cc(F)c(S(=O)(=O)N(C)C)cc3c12 [Compound 186, 8-Dimethylsulfamoyl-7-fluoro-4-oxo-4,5-dihydro-3H-pyrrolo[2,3-c]quinoline-1-propyl carboxylate]
8 | 0.1 to 1 | CCOC(=O)c1c[nH]c2c(=O)[nH]c3ccc(S(=O)(=O)Cc4ccccn4)cc3c12 [Compound 196, 4-Oxo-8-(pyridin-2-ylmethanesulfonyl)-4,5-dihydro-3H-pyrrolo[2,3-c]quinoline-1-ethyl carboxylate]
9 | 1 to 10 | CCOC(=O)c1c[nH]c2c(=O)[nH]c3ccc(-c4ccnc(N5CCN(c6ccccn6)CC5)n4)cc3c12 [Compound 265, 4-Oxo-8-[2-(4-pyridin-2-yl-piperazin-1-yl)-pyrimidin-4-yl]-4,5-dihydro-3H-pyrrolo[2,3-c]quinoline-1-ethyl carboxylate]
10 | 0.1 to 1 | CCOC(=O)c1c[nH]c2c(=O)[nH]c3ccc(-c4csc(NC(=O)C5CC5)n4)cc3c12 [Compound 275, 8-[2-(Cyclopropanecarbonyl-amino)-thiazol-4-yl]-4-oxo-4,5-dihydro-3H-pyrrolo[2,3-c]quinoline-1-ethyl carboxylate]
11 | 0.1 to 1 | CCOC(=O)c1c[nH]c2c(=O)[nH]c3ccc(-c4ccc5[nH]ccc5c4)cc3c12 [Compound 252, 8-(1H-Indol-5-yl)-4-oxo-4,5-dihydro-3H-pyrrolo[2,3-c]quinoline-1-ethyl carboxylate]
12 | 1 to 10 | CCOC(=O)c1c[nH]c2c(=O)[nH]c3cc(OC)c(I)cc3c12 [Compound 214, 8-Iodo-7-methoxy-4-oxo-4,5-dihydro-3H-pyrrolo[2,3-c]quinoline-1-ethyl carboxylate]
13 | 10 to 100 | CCOC(=O)c1c[nH]c2c(=O)[nH]c3ccc(-c4csc(Nc5c(Cl)cccc5Cl)n4)cc3c12 [Compound 274, 8-[2-(2,6-Dichlorophenylamino)-thiazol-4-yl]-4-oxo-4,5-dihydro-3H-pyrrolo[2,3-c]quinoline-1-ethyl carboxylate]
14 | 0.1 to 1 | CCOC(=O)c1c[nH]c2c(=O)[nH]c3ccc(Sc4ccccc4)cc3c12 [Compound 220, 4-Oxo-8-phenylsulfanyl-4,5-dihydro-3H-pyrrolo[2,3-c]quinoline-1-ethyl carboxylate]
